From patent publication US8785452B2, “Anti-infective compounds” (priority 2008, dated 2014)
Where two headings read alike, the source gives them in different places.

Assays:
[1] = tested on: Raw264.7 cells; assay: Cell number (CellNb) from image analysis of the phenotypic cell-based assay
[2] = tested on: M. tuberculosis H37Rv-GFP; assay: microbe, parasite or virus in culture; assay type: cell-based, Mycobacterium tuberculosis; conditions: Mycobacterium tuberculosis, H37RV, Macrophage
[3] = tested on: Raw264.7 cells; conditions: mouse
[4] = confirmation, 20 uM, read-out: QIM Confirm % Inhibition 20 uM
[5] = primary screen, 20 μM, read-out: Primary QIM % Inhibition

| Structure (SMILES) | Primary QIM CellNb [1] | inhibition at 20 µM ([2]; read-out: Primary QIM % Inhibition) [%] | inhibition at 20 µM ([2]; read-out: QIM Confirm % Inhibition 20 uM) [%] | Primary QIM CellNb [3] | Primary QIM CellNb ([1]; primary screen, 20 μM) | inhibition at 20 µM [2, 4] [%] | inhibition at 20 µM [2, 5] [%] | Primary QIM CellNb ([3]; 5 days, 20 μM) | QIM Confirm CellNb 20 uM ([3]; 5 days, 20 uM) |
| --- | --- | --- | --- | --- | --- | --- | --- | --- | --- |
| CCOc1ccc(/C(C)=N/NC(N)=S)cc1 [IPK 000 080 37] | 110.8 | -44 | 36 | 62.1 |  |  |  |  |  |
| O=C(N/N=C/c1cc(Br)cc([N+](=O)[O-])c1O)c1ccncc1 [IPK 000 080 81] |  |  |  |  | 363.3 | 99.5 | 94.7 | 104.9 |  |
| O=C(N/N=C/c1ccccc1Cl)c1ccncc1 [IPK 000 043 05] |  |  |  |  | 228.8 | 104 | 97.1 | 101.6 | 80.2 |
| NNC(=O)c1ccc(COc2cc(Cl)ccc2Cl)o1 [IPK 000 123 02] |  |  |  |  | 411.8 | 78.2 | 76.8 | 45.3 |  |
| CCOc1ccc(NC(=S)Nc2ccccc2)cc1 [IPK 000 108 78] |  |  |  |  | 200.3 | 68.8 | 78.8 | 38.3 |  |
| O=C(Nc1cc(Cl)cc(Cl)c1)c1ccc([N+](=O)[O-])cc1Cl [IPK 000 049 03] |  |  |  |  | 205.3 | 48.6 | 62.6 | 56.0 |  |
| O=C(COc1ccccc1-c1ccccc1)N/N=C\c1ccc([N+](=O)[O-])s1 [IPK 000 103 28] |  |  |  |  | 134.3 | 71.3 | 71.1 | 49.5 |  |
| CCOC(=O)/C=C/C(=O)Nc1sc(Cc2ccccc2)c(C)c1C(N)=O [IPK 000 110 16] |  |  |  |  | 179.5 | 86 | 59 | 6.0 |  |
| CN1CCN(NC(=O)c2ccc(COc3ccc(Cl)cc3Cl)o2)CC1 [IPK 000 123 92] |  |  |  |  | 135.8 | 15.4 | 45.3 | 32.3 |  |
